From patent US20190307776A1, “AZA-S[…] HUMAN IMMUNODEFICIENCY VIRUS REPLICATION” (priority 2016, published 2019)

test system: recombinant NL4-3 virus; assay: HIV cell culture assay; assay type: cell-based; details: Human immunodeficiency virus 1, NL43, MT2
Protocol: HIV cell culture assay—MT-2 cells and 293T cells were obtained from the NIH AIDS Research and Reference Reagent Program. MT-2 cells were propagated in RPMI 1640 media supplemented with 10% heat inactivated fetal bovine serum, 100 […]. The 293T cells were propagated in DMEM media supplemented with 10% heat inactivated fetal bovine serum (FBS), 100 units/ml penicillin G and 100 μg/ml streptomycin. The proviral DNA clone of NL4-3 was obtained from the NIH AIDS Research and Reference Reagent Program. A recombinant NL4-3 virus, in which a section of the nef gene from NL4-3 was replaced with the Renilla luciferase gene, was used as a reference virus. In addition, residue Gag P373 was converted to P373S. Briefly, the recombinant virus was prepared by transfection of the altered proviral clone of NL4-3. Transfections were performed in 293T cells using LipofectAMINE PLUS from Invitrogen (Carlsbad, Calif.), according to manufacturer's instruction. The virus was titered in MT-2 cells using luciferase enzyme activity as a marker. Luciferase was quantitated using the Dual Luciferase kit from Promega (Madison, Wis.), with modifications to the manufacturer's protocol. The diluted Passive Lysis solution was pre-mixed with the re-suspended Luciferase Assay Reagent and the re-suspended Stop & Glo Substrate (2:1:1 ratio). Fifty (50) μL of the mixture was added to each aspirated well on assay plates and luciferase activity was measured immediately on a Wallac TriLux (Perkin-Elmer). Antiviral activities of inhibitors toward the recombinant virus were quantified by measuring luciferase activity in cells infected for 4-5 days with NLRluc recombinants in the presence serial dilutions of the inhibitor.

SMILES	EC50
C=C(C)[C@@H]1CC[C@]2(CNCCCN3CCS(=O)(=O)CC3)CC[C@]3(C)[C@H](CC[C@@H]4[C@@]5(C)CCN(C/C=C/C(=O)O)C(C)(C)[C@@H]5CC[C@]43C)[C@@H]12 [Example 34, (E)-4-((4aR,6aR,6bR,8aS,11R,11aR,11bR,13aR,13bR)-8a-(((3-(1,1-dioxidothiomorpholino)propyl)amino)methyl)-4,4,6a,6b,13b-pentamethyl-11-(prop-1-en-2-yl)hexadecahydro-1H-cyclopenta[5,6]naphtho[2,1-f]isoquinolin-3(2H,4H,13bH)-yl)but-2-enoic acid]	> 3000 nM
C=C(C)[C@@H]1CC[C@]2(CNCCCN3CCS(=O)(=O)CC3)CC[C@]3(C)[C@H](CC[C@@H]4[C@@]5(C)CCN(CC(=O)NC(C)(C)C(=O)O)C(C)(C)[C@@H]5CC[C@]43C)[C@@H]12 [Example 35, 2-(2-((4aR,6aR,6bR,8aS,11R,11aR,11bR,13aR,13bR)-8a-(((3-(1,1-dioxidothiomorpholino)propyl)amino)methyl)-4,4,6a,6b,13b-pentamethyl-11-(prop-1-en-2-yl)hexadecahydro-1H-cyclopenta[5,6]naphtho[2,1-f]isoquinolin-3(2H,4H,13bH)-yl)acetamido)-2-methylpropanoic acid]	> 3000 nM
C=C(C)[C@@H]1CC[C@]2(CN(C)CCCN3CCS(=O)(=O)CC3)CC[C@]3(C)[C@H](CC[C@@H]4[C@@]5(C)CCN(CC(=O)NC(C)(C)C(=O)O)C(C)(C)[C@@H]5CC[C@]43C)[C@@H]12 [Example 36, 2-(2-((4aR,6aR,6bR,8aS,11R,11aR,11bR,13aR,13bR)-8a-(((3-(1,1-dioxidothiomorpholino)propyl)(methyl)amino)methyl)-4,4,6a,6b,13b-pentamethyl-11-(prop-1-en-2-yl)hexadecahydro-1H-cyclopenta[5,6]naphtho[2,1-f]isoquinolin-3(2H,4H,13bH)-yl)acetamido)-2-methylpropanoic acid]	1300 nM
C=C(C)[C@@H]1CC[C@]2(CNCCCN3CCS(=O)(=O)CC3)CC[C@]3(C)[C@H](CC[C@@H]4[C@@]5(C)CCN(C(=O)C(=O)O)C(C)(C)[C@@H]5CC[C@]43C)[C@@H]12 [Example 37, 2-((4aR,6aR,6bR,8aS,11R,11aR,11bR,13aR,13bR)-8a-(((3-(1,1-dioxidothiomorpholino)propyl)amino)methyl)-4,4,6a,6b,13b-pentamethyl-11-(prop-1-en-2-yl)hexadecahydro-1H-cyclopenta[5,6]naphtho[2,1-f]isoquinolin-3(2H,4H,13bH)-yl)-2-oxoacetic acid]	> 3000 nM
C=C(C)[C@@H]1CC[C@]2(CNCCCN3CCS(=O)(=O)CC3)CC[C@]3(C)[C@H](CC[C@@H]4[C@@]5(C)CCN(C(=O)C(=O)NC(C)(C)C(=O)O)C(C)(C)[C@@H]5CC[C@]43C)[C@@H]12 [Example 38, 2-(2-((4aR,6aR,6bR,8aS,11R,11aR,11bR,13aR,13bR)-8a-(((3-(1,1-dioxidothiomorpholino)propyl)amino)methyl)-4,4,6a,6b,13b-pentamethyl-11-(prop-1-en-2-yl)hexadecahydro-1H-cyclopenta[5,6]naphtho[2,1-f]isoquinolin-3(2H,4H,13bH)-yl)-2-oxoacetamido)-2-methylpropanoic acid]	> 3000 nM
C=C(C)[C@@H]1CC[C@]2(CNCCCN3CCS(=O)(=O)CC3)CC[C@]3(C)[C@H](CC[C@@H]4[C@@]5(C)CCN(C(=O)C(=O)NC6(C(=O)O)CC6)C(C)(C)[C@@H]5CC[C@]43C)[C@@H]12 [Example 39, 1-(2-((4aR,6aR,6bR,8aS,11R,11aR,11bR,13aR,13bR)-8a-(((3-(1,1-dioxidothiomorpholino)propyl)amino)methyl)-4,4,6a,6b,13b-pentamethyl-11-(prop-1-en-2-yl)hexadecahydro-1H-cyclopenta[5,6]naphtho[2,1-f]isoquinolin-3(2H,4H,13bH)-yl)-2-oxoacetamido)cyclopropanecarboxylic acid]	> 3000 nM
C=C(C)[C@@H]1CC[C@]2(CNCCCN3CCS(=O)(=O)CC3)CC[C@]3(C)[C@H](CC[C@@H]4[C@@]5(C)CCN(c6ccc(C#N)cn6)C(C)(C)[C@@H]5CC[C@]43C)[C@@H]12 [Example 40, 6-((4aR,6aR,6bR,8aS,11R,11aR,11bR,13aR,13bR)-8a-(((3-(1,1-dioxidothiomorpholino)propyl)amino)methyl)-4,4,6a,6b,13b-pentamethyl-11-(prop-1-en-2-yl)hexadecahydro-1H-cyclopenta[5,6]naphtho[2,1-f]isoquinolin-3(2H,4H,13bH)-yl)nicotinonitrile]	760 nM
C=C(C)[C@@H]1CC[C@]2(CNCCCN3CCS(=O)(=O)CC3)CC[C@]3(C)[C@H](CC[C@@H]4[C@@]5(C)CCN(c6ccc(C(N)=O)cn6)C(C)(C)[C@@H]5CC[C@]43C)[C@@H]12 [Example 41, 6-((4aR,6aR,6bR,8aS,11R,11aR,11bR,13aR,13bR)-8a-(((3-(1,1-dioxidothiomorpholino)propyl)amino)methyl)-4,4,6a,6b,13b-pentamethyl-11-(prop-1-en-2-yl)hexadecahydro-1H-cyclopenta[5,6]naphtho[2,1-f]isoquinolin-3(2H,4H,13bH)-yl)nicotinamide]	400 nM
C=C(C)[C@@H]1CC[C@]2(CNCCCN3CCS(=O)(=O)CC3)CC[C@]3(C)[C@H](CC[C@@H]4[C@@]5(C)CCN(c6ccc(C(=O)O)cn6)C(C)(C)[C@@H]5CC[C@]43C)[C@@H]12 [Example 42, 6-((4aR,6aR,6bR,8aS,11R,11aR,11bR,13aR,13bR)-8a-(((3-(1,1-dioxidothiomorpholino)propyl)amino)methyl)-4,4,6a,6b,13b-pentamethyl-11-(prop-1-en-2-yl)hexadecahydro-1H-cyclopenta[5,6]naphtho[2,1-f]isoquinolin-3(2H,4H,13bH)-yl)nicotinic acid]	3 nM
C=C(C)[C@@H]1CC[C@]2(CNCCCN3CCS(=O)(=O)CC3)CC[C@]3(C)[C@H](CC[C@@H]4[C@@]5(C)CCN(c6ccc(C#N)nc6)C(C)(C)[C@@H]5CC[C@]43C)[C@@H]12 [Example 43, 5-((4aR,6aR,6bR,8aS,11R,11aR,11bR,13aR,13bR)-8a-(((3-(1,1-dioxidothiomorpholino)propyl)amino)methyl)-4,4,6a,6b,13b-pentamethyl-11-(prop-1-en-2-yl)hexadecahydro-1H-cyclopenta[5,6]naphtho[2,1-f]isoquinolin-3(2H,4H,13bH)-yl)picolinonitrile]	280 nM
C=C(C)[C@@H]1CC[C@]2(CNCCCN3CCS(=O)(=O)CC3)CC[C@]3(C)[C@H](CC[C@@H]4[C@@]5(C)CCN(c6ccc(C(=O)O)nc6)C(C)(C)[C@@H]5CC[C@]43C)[C@@H]12 [Example 44, 5-((4aR,6aR,6bR,8aS,11R,11aR,11bR,13aR,13bR)-8a-(((3-(1,1-dioxidothiomorpholino)propyl)amino)methyl)-4,4,6a,6b,13b-pentamethyl-11-(prop-1-en-2-yl)hexadecahydro-1H-cyclopenta[5,6]naphtho[2,1-f]isoquinolin-3(2H,4H,13bH)-yl)picolinic acid]	7 nM
C=C(C)[C@@H]1CC[C@]2(CNCCCN3CCS(=O)(=O)CC3)CC[C@]3(C)[C@H](CC[C@@H]4[C@@]5(C)CCN(c6ccc(C(=O)O)c(F)c6)C(C)(C)[C@@H]5CC[C@]43C)[C@@H]12 [Example 45, 4-((4aR,6aR,6bR,8aS,11R,11aR,11bR,13aR,13bR)-8a-(((3-(1,1-dioxidothiomorpholino)propyl)amino)methyl)-4,4,6a,6b,13b-pentamethyl-11-(prop-1-en-2-yl)icosahdro-3H-cyclopenta[5,6]naphtho[2,1-f]isoquinolin-3-yl)-2-fluorobenzoic acid]	20 nM
C=C(C)[C@@H]1CC[C@]2(CNCCCN3CCS(=O)(=O)CC3)CC[C@]3(C)[C@H](CC[C@@H]4[C@@]5(C)CCN(c6ccc([N+](=O)[O-])cc6)C(C)(C)[C@@H]5CC[C@]43C)[C@@H]12 [Example 46, 4-(3-((((4aR,6aR,6bR,8aS,11R,11aR,11bR,13aR,13bR)-4,4,6a,6b,13b-pentamethyl-3-(4-nitrophenyl)-11-(prop-1-en-2-yl)icosahydro-1H-cyclopenta[5,6]naphtho[2,1-f]isoquinolin-8a-yl)methyl)amino)propyl)thiomorpholine 1,1-dioxide]	> 330 nM
C=C(C)[C@@H]1CC[C@]2(CNCCCN3CCS(=O)(=O)CC3)CC[C@]3(C)[C@H](CC[C@@H]4[C@@]5(C)CCN(c6ccc(N)cc6)C(C)(C)[C@@H]5CC[C@]43C)[C@@H]12 [Example 47, 4-(3-((((4aR,6aR,6bR,8aS,11R,11aR,11bR,13aR,13bR)-3-(4-aminophenyl)-4,4,6a,6b,13b-pentamethyl-11-(prop-1-en-2-yl)icosahydro-1H-cyclopenta[5,6]naphtho[2,1-f]isoquinolin-8a-yl)methyl)amino)propyl)thiomorpholine 1,1-dioxide]	> 330 nM
